Laboratory results published in PMC9038752, “Molecular mechanisms of bifunctional vitamin D receptor agonist-histone deacetylase inhibitor hybrid molecules in triple-negative breast cancer” (Scientific Reports, 2022).
≈ marks a conversion by molar mass, not a printed value.

Tests used:
MB-MDA231 cells = test: RealTime-Glo MT cell viability assay, MB-MDA231; type: cell-based; settings: human TNBC cell line MB-MDA231, 24 h
Method: (§1) Figure 5 (a) and (b) Analysis of induced Cyp24a1 expression in 4TO7 (a) and 4T1 (b) cells to test for VDR agonism of DK-406 and heterocyclic analogues after 24 h treatment. c-e. Analysis of the cytotoxicity of hybrid compounds after 24 h using the MTGlo assay (see Methods for details) in 4TO7 (c), 4T1 (d) and MDA-MB-231 (e) cells. […] Each condition was compared to control. *: p ≤ 0.05, **: p ≤ 0.01, ***: p ≤ 0.001, ****: p ≤ 0.0001, ns: not significant.
(§2) As previously, we were interested in studying the efficacy of hybrids in models of TNBC. We used the 4T1 cell line[20] as well as the related TNBC cell line 4TO7, which was derived from the same mouse tumor as 4T1 cells in Balb/c mice[33]. 4TO7 cells readily form primary tumors. […] These lines also have the advantage that anti-tumor efficacy studies can be performed in Balb/c mice, which have intact immune systems. Compounds were initially tested for VDR agonist activity in 4TO7 cells by screening induction of the VDR target gene Cyp24a1. […]
(§3) The assay was performed to assess cell viability in order to determine analogue cytotoxicity. […] Luminescence was measured using a 1420 Luminescence Counter Victor Light (PerkinElmer), normalized to control, and plotted. […]

4TO7 cells = test: RealTime-Glo MT cell viability assay, 4TO7; type: cell-based, mouse; settings: 24 h
Method: as §1, §2, §3

[1] = Aqueous solubility after sonication; type: physicochemical; settings: after sonication for 30 min
Text: The synthesis of the B-ring series mirrored that of the A-ring series producing B-ring hybrids AM-191 (n = 1, 27a), AM-192 (n = 3, 27b), and AM-193 (n = 5, 27c) in 9 steps (Fig. 3).

[2] = system: 4T1 mouse model of triple negative breast cancer; parameters: method as in PMID 28847749; settings: aggressive 4T1 mouse model of TNBC; cited from earlier work

SMILES: CCC(CC)(c1ccc(OCCCCCC(=O)NO)cc1)c1ccc(OCC(O)C(C)(C)C)c(C)n1 (stereo not drawn) [AM-193]
- cytotoxicity (MT-Glo viability) (MB-MDA231 cells): potency of AM-193 as a cytotoxic agent was also confirmed
- cytotoxicity (MT-Glo viability) (4TO7 cells): most potent compound tested
- potency in MT-Glo assay relative to DK-406 (4TO7 cells): at least tenfold
- higher solubility in water compared to DK-367 [1]: 27%
- solubility at 30 min ([1]; water): 2.43 µg/mL (≈ 4.85 µM)

SMILES: CCC(CC)(c1ccc(C(=O)NCCCCCC(=O)NO)cc1)c1ccc(OCC(O)C(C)(C)C)c(C)c1 (stereo not drawn) [DK-406]
- tumor growth and metastasis [2]: reduced tumor growth and metastasis
